# Tests used:
# Decitabine = compound: Nc1ncn([C@H]2C[C@H](O)[C@@H](CO)O2)c(=O)n1 [Decitabine]; test: relative viability (nuclei count vs DMSO), 5 days (fraction); higher = more cells survive
# Procedure, shortened: (§1)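 Vehicle-anchored 1536-well plates of lung cancer cell lines, held overnight at 37 °C, were pinned with five library-drug doses (not always all listed) spaced by √10. No medium change followed over the next 5 days, after which the cells were fixed, permeabilised and Hoechst-stained together and imaged at 4×. Nuclei were counted with MetaXpress, and viability is treated-well nuclei over vehicle-well nuclei, taken as a median across plates. Plates passed with control CV below 25% and at least one doubling.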
# Halofuginone = compound: O=C(C[C@H]1NCCC[C@@H]1O)Cn1cnc2cc(Br)c(Cl)cc2c1=O (racemic) [Halofuginone]; test: as above
# Procedure, shortened: as §1
Cell Line,relative viability (Decitabine; 0.04 µM),relative viability (Decitabine; 0.1265 µM),relative viability (Decitabine; 0.4 µM),relative viability (Decitabine; 1.265 µM),relative viability (Decitabine; 4 µM),relative viability (Halofuginone; 0.001 µM),relative viability (Halofuginone; 0.003162 µM),relative viability (Halofuginone; 0.01 µM),relative viability (Halofuginone; 0.03162 µM),relative viability (Halofuginone; 0.1 µM),"relative viability (Decitabine; 2 µM, anchor plate)"
NCI-H1563,1.07,1.04,1.43,0.986,1.03,1.02,1.06,0.885,0.664,0.486,
NCI-H1666,0.938,0.9,0.866,0.827,0.851,0.993,0.936,0.991,1.06,0.991,0.764
PC-14,0.393,0.449,0.156,0.149,0.163,1.02,1,0.93,0.639,0.348,0.218
NCI-H1915,0.502,0.421,0.329,0.26,0.292,0.957,1.13,0.959,0.998,0.943,0.265
NCI-H1703,0.772,0.669,0.288,0.332,0.246,0.931,0.994,0.886,0.668,0.519,
NCI-H661,0.928,0.944,0.764,0.59,0.557,1.01,0.962,0.956,0.907,0.85,0.565
SK-MES-1,0.827,0.707,0.461,0.339,0.305,1.04,1.05,0.978,0.827,0.271,0.378
NCI-H1944,0.9,0.869,0.541,0.381,0.441,0.962,0.951,0.918,0.963,0.922,0.429
HCC-78,0.877,0.816,0.673,0.541,0.47,1.07,0.961,0.958,1.06,0.879,0.706
PC-3 [JPC-3],,0.85,0.537,0.611,0.627,1.06,1.04,1.01,1.09,0.982,0.847
LCLC-103H,1.07,1.05,0.917,0.85,0.805,0.992,1.05,0.994,0.96,0.945,0.736
EKVX,0.71,0.809,0.647,0.418,0.375,1.06,0.928,0.989,1,0.858,0.358
